Data reported in patent US20250222108A1, “MEDICAL AGENT INCLUDING ADJUVANT AND COMPOSITE OF PHOTOSENSITIVE MOLECULE AND MOLECULE BINDING TO CANCER-SPECIFIC CELL SURFACE MOLECULE” (KYOTO UNIVERSITY, priority 2021, published 2025).

Tested on: KPC-N cells
Experiment: Antitumor effect by TLR3 ligand, pancreatic cancer model
Type: in vivo, C57BL/6 mice
Conditions: 50 μg intratumoral on day 8; N=6
Description: PolyI:C (Poly (I:C) (HMW) VacciGrade™: InvivoGen), which is a TLR3 ligand, was used.
1.5×10^6 KPC-N cells were subcutaneously transplanted to the back of 6- to 8-week-old C57BL/6 mice, and two groups (each group N=6) of non-treatment group (Control) and polyI:C group were established. To the tumor of the mice on day 8 after subcutaneous transplantation was topically injected (intratumoral administration) 50 μg of polyI:C.

Substance: polyI:C
- antitumor effect (tumor size): no antitumor effect
